Measurements taken from patent US20090270359A1, “SUBSTITUTED PYRAZOLE DERIVATIVES” (TAKEDA PHARMACEUTICAL COMPANY LIMITED, priority 2007, published 2009).
Where a chain is given by its changes, count along the chain named.

Key:
[1] = target: T1, wild type androgen receptor (AR) (Homo sapiens, UniProt P10275); experiment: AR-binding inhibition test, wild type (radio-labeled Mibolerone displacement); settings: compound 1 μM; 3 nM radio-labeled Mibolerone; 4° C., 3 hours; dextran/charcoal method; read-out: Inhibitory rate (%) at 1 μM, wild type
T1 sequence (P10275 1-920): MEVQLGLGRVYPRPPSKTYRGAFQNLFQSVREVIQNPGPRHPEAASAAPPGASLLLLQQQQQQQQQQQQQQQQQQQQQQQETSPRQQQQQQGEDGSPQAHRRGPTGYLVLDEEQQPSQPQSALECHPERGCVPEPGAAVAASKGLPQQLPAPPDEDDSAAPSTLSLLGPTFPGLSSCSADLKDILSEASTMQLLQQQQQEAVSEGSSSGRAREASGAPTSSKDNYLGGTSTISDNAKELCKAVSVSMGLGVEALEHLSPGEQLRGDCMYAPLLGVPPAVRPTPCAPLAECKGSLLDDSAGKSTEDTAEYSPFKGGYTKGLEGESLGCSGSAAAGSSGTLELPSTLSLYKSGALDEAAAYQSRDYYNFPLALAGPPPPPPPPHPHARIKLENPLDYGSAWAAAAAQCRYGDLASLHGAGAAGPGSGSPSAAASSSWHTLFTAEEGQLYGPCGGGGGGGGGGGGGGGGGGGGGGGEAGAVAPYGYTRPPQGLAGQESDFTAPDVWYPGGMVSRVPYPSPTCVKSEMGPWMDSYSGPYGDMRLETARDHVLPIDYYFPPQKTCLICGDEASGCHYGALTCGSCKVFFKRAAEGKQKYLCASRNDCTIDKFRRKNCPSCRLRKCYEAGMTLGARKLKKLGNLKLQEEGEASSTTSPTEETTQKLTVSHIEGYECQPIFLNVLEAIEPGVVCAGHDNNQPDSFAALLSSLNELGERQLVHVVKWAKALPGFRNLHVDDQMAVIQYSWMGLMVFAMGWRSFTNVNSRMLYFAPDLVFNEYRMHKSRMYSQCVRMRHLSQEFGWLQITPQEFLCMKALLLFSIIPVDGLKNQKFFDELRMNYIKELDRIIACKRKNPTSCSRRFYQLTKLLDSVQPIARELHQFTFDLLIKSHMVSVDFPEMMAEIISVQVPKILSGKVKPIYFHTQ
Protocol: (§1) To a solution of wild type or LNCaP type mutant androgen receptor (AR) was added 3 nM radio-labeled Mibolerone and final concentration 1 μM of the compound. The mixture was incubated at 4° C. for 3 hours, and B (Bound) and F (Free) Mibolerones were separated by the dextran/charcoal method. The label count of B was measured and the inhibition rate of the compound was calculated.

[2] = target: T2, LNCaP type mutant androgen receptor (AR) (Homo sapiens, UniProt P10275, T878A); experiment: AR-binding inhibition test, LNCaP type (radio-labeled Mibolerone displacement); settings: compound 1 μM; 3 nM radio-labeled Mibolerone; 4° C., 3 hours; dextran/charcoal method; read-out: Inhibitory rate (%) at 1 μM, LNCaP type
T2 sequence (P10275 1-920 T878A): T1 sequence (P10275 1-920) with T878A
Protocol: as §1

[3] = system: Human prostate cancer cells LNCaP-FGC; experiment: Prostate specific antigen (PSA) production inhibition test in prostate cancer cells; type: cell-based; settings: compound 1 μM, testosterone 0.1 ng/m, PSA in culture supernatant after 3 days by ELISA, testosterone non-addition group 100%, addition group 0%; for inhibition at 1 µM: Homo sapiens, 72 h, read-out: Inhibitory rate (%) at 1 μM (PSA production suppression rate)
Protocol: Human prostate cancer cells LNCaP-FGC were plated in a 24 well plate at 40000 cells/1000 μL/well, and testosterone (final concentration 0.1 ng/m) and the compound (1 μM) were added the next day. The concentration of PSA in the culture supernatant after 3 days from the addition was measured by ELISA, and the PSA production suppression rate was calculated with the testosterone non-addition group as 100% and the testosterone addition group as 0%.

mutant AR (W741C) = target: T3, mutant AR (W741C) (Homo sapiens, UniProt P10275, W742C); experiment: AR transcription inhibition test (luciferase reporter in Cos-7 cells); type: cell-based; settings: compound 1 μM, 0.1 μM DHT, luciferase activity after 24 hr, relative to control (0.1 μM DHT), read-out: Inhibitory rate (%) of mutant AR at 1 μM
T3 construct: expressed in transfected cells; host or cells: Cos-7
T3 sequence (P10275 1-920 W742C): T1 sequence (P10275 1-920) with W742C
Protocol: Cos-7 cells (5,000,000 cells) were inoculated to a flask, and incubated in a culture medium (DMEM+10% Dextran Charcoal (DCC)−Fetal Bovine Serum (FBS) and 2 mM glutamine) for 24 hours. Then, a vector DNA harboring mutant AR (W741C) and a vector DNA containing a luciferase gene bound at the downstream of an androgen responsive promoter were cotransfected by a liposome method. After 4 hr, the medium was changed and, after culture for 3 hr, DHT (dihydrotestosterone) at the final concentration of 0.1 μM and the compound at the final concentration of 1 μM were added. After further culture for 24 hr, the luciferase activity was measured, and the AR transcription inhibitory activity of the compound was examined.

inhibition at 1 µM [1] | inhibition at 1 µM [2] | inhibition at 1 µM (mutant AR (W741C)) | SMILES | inhibition at 1 µM [3] | Inhibitory rate (%) at 1 μM (PSA production suppression rate) [3]
66% | 75% | 32% | Cc1nn(Cc2ccc(C(N)=O)nc2)c(C)c1-c1ccc(C#N)c(Cl)c1 [Example 105, 5-{[4-(3-chloro-4-cyanophenyl)-3,5-dimethyl-1H-pyrazol-1-yl]methyl}pyridine-2-carboxamide] | 109% | –
49% | 79% | 38% | CNC(=O)c1ccc(Cn2nc(C)c(-c3ccc(C#N)c(Cl)c3)c2C)cn1 [Example 106, 5-{[4-(3-chloro-4-cyanophenyl)-3,5-dimethyl-1H-pyrazol-1-yl]methyl}-N-methylpyridine-2-carboxamide] | 110% | –
74% | 82% | 36% | Cc1nn(Cc2ccc(C(=O)NC3CC3)cc2)c(C)c1-c1ccc(C#N)c(Cl)c1 [Example 304, 4-{[4-(3-chloro-4-cyanophenyl)-3,5-dimethyl-1H-pyrazol-1-yl]methyl}-N-cyclopropylbenzamide] | 98.3% | –
70% | 73% | 72% | Cc1nn(Cc2ccc(C(=O)NC3CC3)nc2)c(C)c1-c1ccc(C#N)c(Cl)c1 [Example 310, 5-{[4-(3-chloro-4-cyanophenyl)-3,5-dimethyl-1H-pyrazol-1-yl]methyl}-N-cyclopropylpyridine-2-carboxamide] | 106% | –
29% | 29% | 17% | Cc1nn(Cc2ccc(C(N)=O)nc2)c(C)c1-c1ccc(C#N)c(C(F)(F)F)c1 [Example 311, 5-({4-[4-cyano-3-(trifluoromethyl)phenyl]-3,5-dimethyl-1H-pyrazol-1-yl}methyl)pyridine-2-carboxamide] | 85.8% | –
84% | 83% | 24% | Cc1nn(Cc2ccc(S(N)(=O)=O)cc2)c(C)c1-c1ccc(C#N)c(Cl)c1 [Example 322, 4-{[4-(3-chloro-4-cyanophenyl)-3,5-dimethyl-1H-pyrazol-1-yl]methyl}benzenesulfonamide] | 108% | –
– | – | – | CC(O)(CS(=O)(=O)c1ccc(F)cc1)C(=O)Nc1ccc(C#N)c(C(F)(F)F)c1 (stereo not drawn) [bicartamide, reference compound] | – | 75.0%

SMILES | inhibition at 1 µM [1] | inhibition at 1 µM [2] | inhibition at 1 µM (mutant AR (W741C)) | inhibition at 1 µM [3] | Inhibitory rate (%) at 1 μM (PSA production suppression rate) [3]
Cc1nn(Cc2cccc(C(N)=O)c2)c(C)c1-c1ccc(C#N)c(Cl)c1 [Example 68, 3-{[4-(3-chloro-4-cyanophenyl)-3,5-dimethyl-1H-pyrazol-1-yl]methyl}benzamide] | 76% | 82% | 31% | 95.4% | –
Cc1nn(Cc2ccc(C(N)=O)cc2)c(C)c1-c1ccc(C#N)c(Cl)c1 [Example 69, 4-{[4-(3-chloro-4-cyanophenyl)-3,5-dimethyl-1H-pyrazol-1-yl]methyl}benzamide] | 88% | 80% | 19% | 107% | –
Cc1nn(Cc2ccc(F)c(C(N)=O)c2)c(C)c1-c1ccc(C#N)c(Cl)c1 [Example 77, 5-{[4-(3-chloro-4-cyanophenyl)-3,5-dimethyl-1H-pyrazol-1-yl]methyl}-2-fluorobenzamide] | 78% | 68% | 92% | 102% | –
Cc1nn(Cc2ccc(C(=O)NCC(C)(C)O)cc2)c(C)c1-c1ccc(C#N)c(Cl)c1 [Example 282, 4-{[4-(3-chloro-4-cyanophenyl)-3,5-dimethyl-1H-pyrazol-1-yl]methyl}-N-(2-hydroxy-2-methylpropyl)benzamide] | 58% | 54% | 28% | 80% | –
Cc1nnc(-c2ccc(Cn3nc(C)c(-c4ccc(C#N)c(Cl)c4)c3C)cc2)o1 [Example 286, 2-chloro-4-{3,5-dimethyl-1-[4-(5-methyl-1,3,4-oxadiazol-2-yl)benzyl]-1H-pyrazol-4-yl}benzonitrile] | 85% | 89% | 67% | 107% | –
